We go through three compounds from patent US12018265B2, “Nucleic acid encoding n-methylputrescine oxidase and uses thereof” (22nd Century Limited, LLC, priority 2006, dated 2024).

The structures appear in SMILES notation.

One assay has as its system MPO. As to conditions: compared with N-methylated diamines; Hashimoto 1990, Walton and McLauchlan 1990, Boswell 1999; cited from earlier work.
Assay [1] concerns MPO and PMT expression in roots. As to the kind of experiment: qRT-PCR analysis of MPO and PMT expression in MeJa-treated roots. Type of assay: in vivo, Nicotiana benthamiana. The note with it: MeJa 11 μM in hydroponic solution. Here is the method: Nicotiana benthamiana (Solanaceae) seedlings were grown hydroponically in 0.25× Hoagland's solution supplemented with iron chelate solution and oxygenated using an aquarium bubbler. Roots from three-week old plants were sampled before (t=0) and at 1, 4, and 7 hours after addition of MeJa to a final concentration of 11 μM. Total RNA was isolated from 450 mg each of untreated leaves, untreated roots, and a combined MeJa-treated root sample composed of 150 mg roots each from the 1, 4 and 7 hour time points using a RNeasy midi kit (Qiagen). We constructed three separate subtractive cDNA libraries: NBREL2, with mRNA pooled from MeJa-treated roots as tester and untreated root mRNA as driver; NBLEL3, with mRNA pooled from MeJa-treated roots as tester and leaf mRNA as driver; and NBREL4, with mRNA pooled from MeJa-treated roots as both tester and driver.
The inducibility of MPO by MeJa application was determined using quantitative RT-PCR (qRT-PCR). The same PCR primers were used as for RT-PCR analysis of expression in different tissues. Total RNA was extracted from hydroponically grown roots immediately before and 1, 4, and 7 hours after addition of MeJa (11 μM) to the hydroponic solution. Hydroponic conditions are detailed in Example 1. […]

The test system of assay [2] is recombinant MPO (N-methylputrescine oxidase). As to the kind of experiment: Recombinant MPO enzyme assay (Amplex red hydrogen peroxide/peroxidase system). Type of assay: biochemical, Nicotiana benthamiana. On the procedure:
Protein extracts was prepared from the roots of buffer control, TRV-GFP and TRV-MPO (214D11) infected plants. The extraction method described in Hashimoto T. et al. (Plant Physiol. 93: 216-221 (1990)) was used. Briefly, 1 g roots was ground in liquid nitrogen and suspended in 20 ml of extraction buffer containing 100 mM potassium phosphate pH 7.5, 0.25 M sucrose, 5 mM EDTA, 0.3% ascorbate and 10% PVPP. After centrifugation at 500 g for 30 min, the supernatant was further centrifuged at 11,000 g for another 30 minutes. The supernatant was subjected to two rounds of 20% and 40% ammonium sulphate precipitation. The precipitate was resuspended in 1 ml water, followed by dialysis overnight in 2 l of buffer containing 20 mM potassium phosphate pH 7.5, 1 mM DTT and 20% glycerol. The protein concentration was determined by DC protein assay kit (BioRad). […] After incubating the mixture at 30° C. for 30 min, the fluorescence was measured with a fluorescence microplate reader (Victor3 UV multilabel reader, PerkinElmer) using excitation at 530-560 nm and emission at 590 nm.
The ORF of the N. benthamiana MPO was expressed in E. coli and the recombinant enzyme was purified for biochemical characterization. […] The protein concentration was determined with DC protein assay kit (BioRad) and MPO purity was analyzed with SDS-PAGE electrophoresis (BioRad). […]

As to `NCCCCCN` [Cadaverine], the “Affinity as substrate for MPO” value in the assay on MPO is “lower affinity than N-methylated diamines”.
As to `CC/C=C\CC1C(=O)CCC1CC(=O)OC` (centres unmarked) [MeJa, methyljasmonate], the “Increase of MPO expression over pre-induction levels” value in assay [1] (roots before and 1, 4, 7 hours after, actin reference (FIG. 3)) is 23 fold. The “Change of PMT transcript levels in response to the inducer” value in assay [1] (roots, compared with MPO (FIG. 3)) is listed as “even more dramatic increase”.
As to `CNCCCCN` [N-methylputrescine], the Km in assay [2] (1 μg Talon purified MPO, N-methylputrescine 10 mM to 0.01 mM, 30°, 30 minutes) was determined as 100 µM. The “Substrate specificity of recombinant MPO” value in assay [2] (1 mM of N-methylputrescine, putrescine, diaminopropane, cadaverine, spermine and spermidine (FIG. 9)) was “preferred N-methylputrescine as a substrate”.
